What was measured:
hEGFR and mEGFR = experiment: SPR pH titration binding (Example 3); set-up: species or system human and murine; settings: 200 nM ligand, pH 5.0 to 8.5
Experimental: pH titration binding experiments were performed at 25° C. in degassed buffer at various pHs ranging from 5.0 to 8.5. Wild-type and mutant EGF were diluted to 200 nM in pH buffer and flowed over the surface of the hEGFR sensorchip at a flow rate of 20 μL/min for 2 min. The hEGFR and mEGFR surfaces were regenerated as noted above. pH titration binding experiments were performed in triplicate at each pH over flow cells one and two for bath the hEGFR and mEGFR surfaces. The steady-state binding response was measured for each growth factor at the association phase plateau of the sensorgram.

NR6WT cells = experiment: Chemotactic cell migration assay, NR6WT; type: cell-based, murine; settings: 0.3 nM, 3-hour exposure
Experimental: (§1) Costar transwells (8.0 μm pores, 6.5 mm diameter) were coated on both sides with bovine fibronectin (10 μg/ml) overnight at 4° C. washed 3 times with PBS, and then blocked with 1% bovine serum albumin (BSA) in PBS at 37° C. for 1 h prior to usage. […] Non-migrated cells were removed by wiping the upper side of the membrane with a cotton swab. The transwells were washed three times with PBS, fixed with methanol, and stained with modified Giemsa. Pictures were taken of the migrated-stained cells in nine random high powered fields (20×) using light microscopy, and the number of migrated cells were counted.

[1] = test system: ErbB receptors expressed on the surface of CHO cells; experiment: EGF ligand specificity on transfected CHO cells; type: binding; settings: 25 nM, 10 min, CHO cells individually expressing ErbB receptors
Experimental: The binding specificities of wild-type and mutant EGF were determined by flow cytometry using CHO cells transfected with EGFR or other ErbB receptor family members. […] Cells were labeled with a FITC-conjugated antibody directed against the N-terminal FLAG epitope tag on EGF and analyzed by flow cytometry.

BJ-5ta cells = experiment: Cell proliferation assay ([3H]TdR incorporation); type: cell-based, human; settings: for level of cell proliferation ([3H]TdR incorporation): 1 nM dose, CFPS-produced protein
Experimental: BJ-5ta cells, human immortalized foreskin fibroblast cells that express human EGFR (American Type Culture Collection), were plated in 96-well plates at a density of 2500 cells per well in 100 μl of full medium [Dulbecco's modified Eagle's medium (DMEM)] supplemented with 1% penicillin/streptomycin (Pen/Strep), 1% I-glutamine, 1% sodium pyruvate, 20% M199, and 10% fetal bovine serum. All cell culture reagents were from invitrogen. After 24 h, cells were serum-starved for 48 h in serum-free medium (DMEM supplemented with 1% Pen/Strep, 1% I-glutamine, 1% sodium pyruvate, and 20% M199). The medium was then replaced with 100 μl of serum-free medium containing the indicated concentrations of treatment protein.
When indicated, the standard serum-free medium used during protein treatment was replaced with advanced media (Advanced DMEM supplemented with 1% Pen/Strep, 1% I-glutamine, 1% sodium pyruvate, and 20% M199) or supplemented with human recombinant insulin. […]
[3H]TdR incorporation was measured 24 h later by freezing the plates at −80° C. overnight, thawing the plates at room temperature, harvesting the cells onto glass fiber filter mats (Perkin Elmer) with a Mach IIIM Harvester (Tomtec), and performing scintillation counting with a Wallac MicroBeta Counter (Perkin Elmer).
BJ5ta cells were plated in 96-well plates at densities of 2,500 cells/well (BJ5ta), in 100 μl of complete medium. […] 3H-TdR incorporation was measured 24 h later by freezing the cells overnight at −80° C. and harvesting the cells onto glass fiber filtermats (Perkin Elmer) using a Mach IIIM harvester (Tomtec). […]
BJ-5ta cells were plated in 96-well plates at a density of 5,000 cells/well and 2,500 cells/well, respectively, in 100 μl of medium. […] 3H-TdR incorporation was measured 24 h later by harvesting the cells onto glass fiber filtermats (Perkin Elmer, Waltham, Mass.) using a Mach IIIM harvester (Tomtec, Hamden, Conn.) and performing scintillation counting with a Wallac MicroBeta (Perkin Elmer, Waltham, Mass.).

BALB/3T3 cells = experiment: Chemotactic cell migration assay, BALB/3T3; type: cell-based; settings: 0.3 nM, 3-hour exposure
Experimental: as §1

BJ5ta cells = experiment: Chemotactic cell migration assay, BJ-5ta; type: cell-based, human; settings: 0.3 nM, 3-hour exposure
Experimental: Non-migrated cells were removed by wiping the upper side of the membrane with a cotton swab. The transwells were washed three times with PBS, fixed with methanol, and stained with modified Giemsa. Pictures were taken of the migrated stained cells in nine random high-powered fields (20×) using light microscopy, and the number of migrated cells was counted.
Costar transwells (Corning 3422, 8.0 μm pores, 6.5 mm diameter) were coated on both sides with 10 μg/ml bovine fibronectin (Sigma F1141-2MG, 1 mg/ml) overnight at 4° C. in buffer (50 mM Tris-HCl, 500 mM NaCl, pH 7.5), Transwells were then washed 3 times with PBS, and then blocked with PBS with 1% BSA (PBS/BSA) at 37° C. for 1 hr prior to usage. […] Non-migrated cells were removed by wiping the upper side of the membrane with Q-tips. […] Pictures were taken of the migrated-stained cells in nine random high-powered fields (20×) using light microscopy, and the number of migrated cells was counted using ImageJ software.
Costar transwells (8.0 μm pores, 6.5 mm diameter) were coated on both sides with bovine fibronectin (10 μg/ml) overnight at 4° C. washed 3 times with PBS, and then blocked with 1% bovine serum albumin (BSA) in PBS at 37° C. for 1 h prior to usage. […] Pictures were taken of the migrated-stained cells in nine random high powered fields (20×) using light microscopy, and the number of migrated cells were counted.

| Substance | pH sensitivity of steady-state binding to EGFR (hEGFR and mEGFR) | chemotactic migration compared to wild-type EGF, NR6WT (NR6WT cells) | ErbB binding specificity [1] | cell proliferation compared to wild-type EGF (BJ-5ta cells; varying concentrations, 72 hours) | chemotactic migration compared to wild-type EGF, BALB/3T3 (BALB/3T3 cells) | chemotactic migration compared to wild-type EGF, BJ-5ta (BJ5ta cells) | level of cell proliferation ([3H]TdR incorporation) (BJ-5ta cells) |
| --- | --- | --- | --- | --- | --- | --- | --- |
| m123: high-affinity mutant EGF SEQ ID NO:17: NSYSECPPSYDGYCLHDGVCRYIEALDSYACNCVVGYAGERCQYRDLRWWGRR | much less so | increased chemotactic migration | bound specifically to EGFR but not to other ErbB receptor family members | no significant changes in the levels of cell proliferation | increased chemotactic migration | increased chemotactic migration | – |
| L47R: EGF point mutant, leucine 47 substituted with arginine, used in mock libraries (NSDSECPLSHDGYCLHDGVCMYIEALDKYACNCVVGYIGERCQYRDRKWWELR; not fully specified; Epidermal growth factor; UniProt P01133 971-1023, looked up, variant L47R) | – | – | – | – | – | – | low |
| L47D: EGF point mutant, leucine 47 substituted with aspartic acid, used in mock libraries (NSDSECPLSHDGYCLHDGVCMYIEALDKYACNCVVGYIGERCQYRDDKWWELR; not fully specified; Epidermal growth factor; UniProt P01133 971-1023, looked up, variant L47D) | – | – | – | – | – | – | intermediate |

From US8865864B2, “Mutant epidermal growth factor polypeptides with improved biological activity and methods of their making and use” (The Board of Trustees of the Leland Stanford Junior …, priority 2011, dated 2014)
